Consider 35 compounds from BindingDB's records for doi:10.1016/j.bmcl.2012.03.099 (Rhône-Poulenc Rorer, 2012).

The experiment deals with Mitogen-activated protein kinase 14 (Homo sapiens) (UniProt Q16539). Kind of experiment: Inhibition of p38alpha.
Sequence of Mitogen-activated protein kinase 14 (Homo sapiens) (Q16539 whole entry, looked up): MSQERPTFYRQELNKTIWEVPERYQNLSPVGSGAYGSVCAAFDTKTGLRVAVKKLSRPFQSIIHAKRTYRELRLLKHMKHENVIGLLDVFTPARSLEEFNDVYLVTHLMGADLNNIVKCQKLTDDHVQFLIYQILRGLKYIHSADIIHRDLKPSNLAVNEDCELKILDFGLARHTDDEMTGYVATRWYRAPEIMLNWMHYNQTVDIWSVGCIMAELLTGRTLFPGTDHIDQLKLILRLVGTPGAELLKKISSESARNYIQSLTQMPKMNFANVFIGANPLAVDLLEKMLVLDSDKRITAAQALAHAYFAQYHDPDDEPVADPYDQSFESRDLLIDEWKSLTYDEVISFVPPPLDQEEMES

`CC(C)(C)c1nnc2ccc(Sc3ccc(F)cc3F)cn12`: the IC50 (usually the concentration that inhibits the measured activity by half) stood at 62 nM.

In the case of `Cc1ccc(C(=O)NC2CC2)cc1-c1ccn2c(C(C)(C)C)nnc2c1`, the IC50 turned out to be 16 nM. In turn, `Cc1c(F)cc(C(=O)NC2CC2)cc1-c1c(F)cn2c(C(C)(C)C)nnc2c1F` registered an IC50 of 6.2 nM. In turn, `Cc1c(F)cc(C(=O)NC2CC2)cc1-c1ccn2c(C(F)(F)F)nnc2c1` showed an IC50 of 85 nM. In the case of `Cc1c(F)cc(C(=O)NC2CC2)cc1-c1ccn2c(C(N)=O)nnc2c1` it was 102 nM; in that of `Cc1c(F)cc(C(=O)NC2CC2)cc1-c1ccn2c(C(C)(C)N)nnc2c1`, 15.4 nM.

`COC(C)(C)c1nnc2cc(-c3cc(C(=O)NC4CC4)cc(F)c3C)ccn12` had an IC50 of 9.4 nM. `CC(=O)NC(C)(C)c1nnc2cc(-c3cc(C(=O)NC4CC4)cc(F)c3C)ccn12` returned an IC50 of 253 nM. The compound `Cc1c(F)cc(C(=O)NC2CC2)cc1-c1ccn2c(C(C)(C)N(C)C)nnc2c1` showed an IC50 of 1.7 nM. Consider `Cc1c(F)cc(C(=O)NC2CC2)cc1-c1ccn2c(C(C)(C)O)nnc2c1`, for which 3.1 nM corresponded to half-maximal inhibition (IC50). For the compound `Cc1ccc(C(=O)NC2CC2)cc1-c1c(F)cn2c(C(C)(C)C)nnc2c1F`, the IC50 amounted to 49 nM. Regarding `Cc1c(F)cc(C(=O)NC2CC2)cc1-c1c(F)cn2c(C(C)C)nnc2c1F`, 6.7 nM corresponded to half-maximal inhibition (IC50). In turn, `Cc1c(F)cc(C(=O)NC2CC2)cc1-c1c(F)cn2c(C3CC3)nnc2c1F` registered an IC50 of 10 nM. `Cc1c(F)cc(C(=O)NC2CC2)cc1-c1c(F)cn2c(-c3ccncc3Cl)nnc2c1F`: the IC50 amounted to 23 nM.

The compound `Cc1c(F)cc(C(=O)NC2CC2)cc1-c1c(F)cn2c(C(C)(C)N)nnc2c1F` displayed an IC50 of 12 nM. For the compound `Cc1c(F)cc(C(=O)NC2CC2)cc1-c1c(F)cn2c(C(C)(C)N(C)C)nnc2c1F`, the IC50 amounted to 15 nM.

The compound `Cc1ccc(C(=O)NC2CC2)cc1-c1ccc2c(N3CCCCC3)noc2c1` displayed an IC50 of 14 nM.

On to `Cc1c(F)cc(C(=O)NC2CC2)cc1-c1ccn2c(C(C)(C)C)nnc2c1`, for which the IC50 was found to be 2 nM. `Cc1ccc(C(=O)NC2CC2)cc1-c1ccn2c(C(C)C)nnc2c1` had a concentration for half-maximal inhibition (IC50) of 27 nM. Compound `Cc1c(F)cc(C(=O)NC2CC2)cc1-c1ccn2c(C(C)C)nnc2c1` registered an IC50 of 3 nM. In the case of `Cc1ccc(C(=O)NC2CC2)cc1-c1ccn2c(C3(C)CC3)nnc2c1` it was 12 nM.

Regarding `Cc1c(F)cc(C(=O)NC2CC2)cc1-c1ccn2c(C3(C)CC3)nnc2c1`, the IC50 was 0.64 nM. In turn, `Cc1ccc(C(=O)NC2CC2)cc1-c1ccn2c(C3CCC3)nnc2c1` returned an IC50 of 20 nM. As for `Cc1c(F)cc(C(=O)NC2CC2)cc1-c1ccn2c(C3CCC3)nnc2c1`, the figure is 1.9 nM; as for `Cc1ccc(C(=O)NC2CC2)cc1-c1ccn2c(C3CCOCC3)nnc2c1`, 56 nM; as for `Cc1c(F)cc(C(=O)NC2CC2)cc1-c1ccn2c(C3CCOCC3)nnc2c1`, 30 nM.

For `Cc1ccc(C(=O)NC2CC2)cc1-c1ccn2c(-c3ccccc3Cl)nnc2c1`, the IC50 came out at 6.3 nM. In the case of `Cc1c(F)cc(C(=O)NC2CC2)cc1-c1ccn2c(-c3ccccc3Cl)nnc2c1` it was 1.6 nM; in that of `Cc1ccc(C(=O)NC2CC2)cc1-c1ccn2c(-c3ccncc3Cl)nnc2c1`, 38 nM; in that of `Cc1c(F)cc(C(=O)NC2CC2)cc1-c1ccn2c(-c3ccncc3Cl)nnc2c1`, 0.83 nM. As to `COC(C)c1nnc2cc(-c3cc(C(=O)NC4CC4)ccc3C)ccn12` (stereo not given), the IC50 amounted to 43 nM.

On to `COC(C)c1nnc2cc(-c3cc(C(=O)NC4CC4)cc(F)c3C)ccn12` (stereo not given), for which inhibition was half-maximal at 18 nM (IC50). Turning to `Cc1ccc(C(=O)NC2CC2)cc1-c1ccn2c(C(F)(F)F)nnc2c1`, inhibition was half-maximal at 853 nM (IC50). The compound `Cc1c(F)cc(C(=O)NC2CC2)cc1-c1ccn2c(C3CC3)nnc2c1` displayed an IC50 of 6.7 nM. As for `Cc1c(F)cc(C(=O)NC2CC2)cc1-c1ccn2c(C(C)(C)NS(C)(=O)=O)nnc2c1`, the IC50 is 17 nM.
